Experimental data taken from article PMC12851007 (Angewandte Chemie (International Ed. in English), 2025).
Where a SMILES comes first, the peptide text is derived from it.

Assay: CF dye efflux assay, EYPC vesicles
Assay type: biochemical
Details: 97 mM NaCl, pH 7.5, 25 °C, n = 1; for Y30µM, membrane activity, CF assay: 30 µM peptide, 25 µM EYPC⸧CF-LUVs (inside 50 mM CF) in 10 mM Hepes, fluorescence λexc 492/λem 517 nm, peptide at 60 s, TX-100 at 600 s, fractional activity
From the text: Time-dep endent fluores cence intensit y traces, I (t), were subsequentl y normalized to fractional intensities, If(t), using equation (1). Therein, I 0 is the intensity just before addition of peptide and I ∞ is the constant intensit y after addition of the calibration cockt ail.
IIf (tt ) = II (tt )−II0II∞ − II0 (1)
The concentration-dependent fractional intensities just before the addition of the calibration cocktail, If, were then normalized to fractional membrane activities, Y, using equation (2).
Therein, If,0 is the fractional intensit y just before addition of the calibration cocktail in absence of peptide and I f,∞ is the constant fractional intensity after addition of the calibration cocktail.
YY = IIf − IIf,0IIf,∞ − IIf,0 (2)
The fractional membrane activities, Y, were subsequently plotted against the peptide concentration, c, and analysed using the Hill equation (3) to obtain the effective molar concentration, EC50, and the Hill coefficient, n. Y0 and Y ma x are the fractional membrane activities in absen ce o f p eptide and at max imal peptide concent rations. For peptides with too little activity to determine Y ma x ex perimentall y, Y max was fixed at 1.0 during fitting.
YY = YY0 + YYmax − YY0nn (3)
Vesicle preparation. 100 µ L of a solution of 25 mg/ml of POPC in chloroform or 200 µ L of a solution of 25 mg/ml of EYPC in chloroform was purged with a stream of nitrogen and dried overnight under high vacuum. The thin lipid film was reh ydrated with 1ml of reh yd ration buffer (= inside buffer, see Table S3 ) b y agitation at room temperature for 30 min and then subjected to 5 freeze- thaw cycles (freezing in liquid nitrogen and thawing at 40 °C).
Subsequently, the liposome suspension was extruded ≥ 15 times through a polycarbonate membrane (pore size 100 nm). Extravesicular components were then removed by size exclusion chromatography using a 1.5 × 12 cm polyprop ylene column (Bio- Rad, German y) with 1.0 g Sephad ex G-50 (medium) as a stationa r y ph ase and the resp ectiv e outside buffer for […]
Ta b l e S 3. Combinations of inside and outside buffer for CF -LUVs.
No. Lipid Inside buffer = rehydration buffer Outside buffer
(1) EYPC 10 mM Hepes, 50 mM CF, pH 7.5 10 mM Hepes, 97 mM NaCl, pH 7.5
(2) POPC 10 mM Hepes, 50 mM CF, pH 7.5 10 mM Hepes, 97 mM NaCl, pH 7.5
(3) POPC 10 mM Hepes, 50 mM CF, pH 7.5 10 mM Hepes, 175 mM glucose, pH 7.5 [a] [a] Glucose b uffers (183 mOsm/L at 25 °C) were used within one week after preparation.
Vesicle quality control. The size distribution of the liposomes was confirmed by DLS to be unimodal and avera ge ve sicles diameters wer e in the ran ge from 115 to 130 nm. The final lipid content in the liposome s uspension after prep ar ation and sep aration w as det ermined b y NMR. CF vesicles are comparabl y leak y and cont ain minor amounts of ex travesi cular CF after a f ew days. When the fluores cence chan ge after vesicl e lys is b y addition of 20 µ L 1.6% (wt/vol) TX-100 was less than a factor of four, the vesicle suspension was no longer used.
Assay protocol. An appropriate volume of the liposome stock solutions was diluted to 2 mL with outside buffer in a 10 ×10 mm quartz glass cuvette to afford a phospholipid concentration of 25 µM. […] Subsequentl y, the time-dependent change in fluorescence intensity (C F: λ exc = 492 nm, λ em = 517 nm) was recorded during addition of 20 µL peptide stock solution of var ying concentrations at 60 s and 20µ L of a calibration cocktail (1. 6% […]

[1] = 25 µM lipid, EYPC⊃CF-LUVs, 10 mM Hepes, fractional activity at 590 s, Hill fit, error = SD of fit

CC[C@H](C)[C@H](NC(=O)[C@H](CCCCN)NC(=O)[C@@H](NC(=O)[C@@H](N)CCC(N)=O)[C@@H](C)CC)C(=O)N[C@@H](Cc1c[nH]c2ccccc12)C(=O)N[C@@H](Cc1ccccc1)C(=O)N[C@@H](CCC(N)=O)C(=O)N[C@@H](CC(N)=O)C(=O)N[C@@H](CCCNC(=N)N)C(=O)N[C@@H](CCCNC(=N)N)C(=O)N[C@@H](CCSC)C(=O)N[C@@H](CCCCN)C(=O)N[C@@H](Cc1c[nH]c2ccccc12)C(=O)N[C@@H](CCCCN)C(=O)N[C@@H](CCCCN)C(=O)O (H-QIKIWFQNRRMKWKK-OH)
EC50, CF assay, EYPC [1]: too low to determine
Y30µM, membrane activity, CF assay: 0.14

CC(C)C[C@H](NC(=O)[C@H](CC(C)C)NC(=O)[C@H](CCCNC(=N)N)NC(=O)[C@@H](N)CC(C)C)C(=O)N[C@@H](CCCNC(=N)N)C(=O)N[C@@H](Cc1c[nH]c2ccccc12)C(N)=O [LRLLRW] (H-LRLLRW-NH2)
Y30µM, membrane activity, CF assay: 0.23

CC(C)[C@H](NC(=O)[C@H](CCCCN)NC(=O)[C@H](CCCNC(=N)N)NC(=O)[C@H](CCCCN)NC(=O)[C@H](CCCCN)NC(=O)[C@H](CCCCN)NC(=O)[C@@H]1CCCN1C(=O)[C@H](CCC(N)=O)NC(=O)[C@H](CO)NC(=O)[C@H](Cc1c[nH]c2ccccc12)NC(=O)[C@H](CC(=O)O)NC(=O)[C@@H](NC(=O)[C@H](Cc1c[nH]c2ccccc12)NC(=O)[C@H](Cc1c[nH]c2ccccc12)NC(=O)[C@@H](NC(=O)[C@H](CC(=O)O)NC(=O)[C@H](Cc1c[nH]c2ccccc12)NC(=O)[C@H](Cc1c[nH]c2ccccc12)NC(=O)[C@@H](NC(=O)[C@H](CC(=O)O)NC(=O)[C@@H](N)CCCCN)[C@@H](C)O)[C@@H](C)O)[C@@H](C)O)C(=O)O [Pep‐1] (H-KDTWWDTWWTDWSQPKKKRKV-OH)
EC50 [1]: 35 ± 1 µM
Y30µM, membrane activity, CF assay: 0.46
